{"source": "patent US20260083864A1", "about": "“CONTRAST AGENTS FOR USE IN DIAGNOSTIC COMPUTED TOMOGRAPHY IMAGING” (Bayer Aktiengesellschaft, priority 2022, published 2026)", "key": {"[1]": {"test": "Water solubility in aqueous buffer", "conditions": "aqueous buffer 10 mM Tris-HCl, pH 7.4, 20° C.", "description": "The solid compounds were added stepwise to the buffer solution. More substance is added once all the suspended material is dissolved until an equilibrium between undissolved and dissolved substance is reached. The suspension was mixed using a shaker (Heidolph Reax 2000) and treated 5 min in an ultrasound bath (Bandelin, Sonorex Super RK255H)."}, "OATP1B1": {"molecular_target": "T1, OATP1B1 (Homo sapiens, UniProt Q9Y6L6)", "T1 sequence (Q9Y6L6 1-691)": "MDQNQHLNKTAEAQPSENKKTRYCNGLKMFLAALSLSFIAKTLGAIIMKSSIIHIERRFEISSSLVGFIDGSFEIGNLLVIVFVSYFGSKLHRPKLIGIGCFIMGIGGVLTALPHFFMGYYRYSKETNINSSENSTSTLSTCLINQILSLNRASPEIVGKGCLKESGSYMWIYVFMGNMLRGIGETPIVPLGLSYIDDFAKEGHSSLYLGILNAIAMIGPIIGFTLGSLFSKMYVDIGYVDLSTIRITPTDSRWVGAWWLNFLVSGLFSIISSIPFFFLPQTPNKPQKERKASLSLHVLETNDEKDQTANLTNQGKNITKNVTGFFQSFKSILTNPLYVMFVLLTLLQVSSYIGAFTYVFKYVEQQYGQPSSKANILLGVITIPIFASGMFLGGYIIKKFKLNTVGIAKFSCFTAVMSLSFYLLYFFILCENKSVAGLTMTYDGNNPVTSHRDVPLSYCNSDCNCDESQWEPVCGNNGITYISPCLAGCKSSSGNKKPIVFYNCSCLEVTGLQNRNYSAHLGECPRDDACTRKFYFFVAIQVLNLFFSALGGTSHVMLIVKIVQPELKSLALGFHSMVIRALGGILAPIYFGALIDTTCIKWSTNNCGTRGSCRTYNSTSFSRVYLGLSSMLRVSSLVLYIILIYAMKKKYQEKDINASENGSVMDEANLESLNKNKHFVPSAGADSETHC", "test": "Uptake into stable transfected OATP1B1 HEK 293 cells", "format": "cell-based", "conditions": "for Uptake into OATP1B1-HEK 293 cells: 40 min incubation, relative to RC1 (Gd-EOB-DTPA); for Inhibition Rifampicine: uptake into OATP1B1-HEK 293 cells", "description": "(§1) Cryopreserved cells were shortly thawed in water bath and diluted in 10 mL warm culture medium (37° C.). After medium change the cells were grown for 3d in a 25 cm^2 cell culture flask. After 3 to 5d the cells were transferred into 75 cm^2 flasks. […] All test items were prepared in transport buffer at a final concentration of 100 M from stock solutions (180 to 500 mM concentration). The OATP1B1 HEK 293 cells were incubated with test solutions (test item in transport buffer 500 L) for 40 min on a thermoshaker without shaking (PHMP, Fa. Grant Bio). Triplicates were performed for each test item. After incubation the cells were washed with 2 mL of cold PBS (+) buffer (Dulbeccos PBS+, Fa. Gibco). […] As a reference standard Gd-EOB-DTPA (gadoxetate) is used in the same well plate."}, "OATP1B3": {"molecular_target": "T2, OATP1B3 (Homo sapiens, UniProt Q9NPD5)", "T2 sequence (Q9NPD5 1-702)": "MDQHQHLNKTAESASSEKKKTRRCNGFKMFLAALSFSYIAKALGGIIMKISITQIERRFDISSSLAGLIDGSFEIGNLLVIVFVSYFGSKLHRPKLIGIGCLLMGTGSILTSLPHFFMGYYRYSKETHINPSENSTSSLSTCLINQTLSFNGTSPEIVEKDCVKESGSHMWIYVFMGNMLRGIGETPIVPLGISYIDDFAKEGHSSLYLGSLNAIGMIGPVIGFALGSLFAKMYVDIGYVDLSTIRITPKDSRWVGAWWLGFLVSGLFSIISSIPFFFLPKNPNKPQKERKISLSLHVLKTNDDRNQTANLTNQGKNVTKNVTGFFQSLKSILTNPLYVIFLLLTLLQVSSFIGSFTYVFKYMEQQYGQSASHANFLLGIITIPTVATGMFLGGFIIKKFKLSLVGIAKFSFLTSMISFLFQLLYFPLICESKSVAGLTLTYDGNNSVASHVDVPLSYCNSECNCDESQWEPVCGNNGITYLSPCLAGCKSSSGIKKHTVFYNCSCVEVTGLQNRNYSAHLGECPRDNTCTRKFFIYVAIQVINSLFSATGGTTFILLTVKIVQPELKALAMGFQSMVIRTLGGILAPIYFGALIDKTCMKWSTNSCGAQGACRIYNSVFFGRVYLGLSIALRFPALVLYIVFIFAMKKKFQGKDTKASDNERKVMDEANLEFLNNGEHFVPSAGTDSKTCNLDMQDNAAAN", "test": "Uptake into stable transfected OATP1B3 HEK 293 cells", "format": "cell-based", "conditions": "for Uptake into OATP1B3-HEK 293 cells: 40 min incubation, relative to RC1 (Gd-EOB-DTPA); for Inhibition Rifampicine: uptake into OATP1B3-HEK 293 cells", "description": "as §1, with “100 µM” for “100 M”, “The OATP1B3” for “The OATP1B1”, “500 μL)” for “500 L)”"}, "[2]": {"test": "Partition coefficient (log P butanol/buffer)", "format": "physicochemical", "conditions": "1-butanol / 50 mM Tris-HCl, pH 7.4, room temperature"}, "[3]": {"tested_on": "freshly isolated rat hepatocytes", "test": "Uptake into freshly isolated rat hepatocytes", "conditions": "for Uptake rat hepatocytes: 100 μmol Gd/L, 10 min, 37° C., relative to RC1 (Gd-EOB-DTPA); for Inhibition Rifampicine: rat hepatocyte uptake, test item and Rifampicine 1:1, each 100 μM"}, "[4]": {"test": "Relaxivity measurements at 1.41 T in water", "format": "physicochemical", "conditions": "37° C., normalized to Gd", "description": "Relaxivity measurements at 1.41 T were performed using a MiniSpec mq60 spectrometer (Bruker Analytik, Karlsruhe, Germany) operating at a resonance frequency of 60 MHz and a temperature of 37° C. The T1 relaxation times were determined using the standard inversion recovery (IR) method with a fixed relaxation delay of at least 5×T1. The variable inversion time (TI) was calculated automatically by the standard software of the MiniSpec mq60 (8 steps). The T2 measurements were performed by using a Carr-Purcell-Meiboom-Gill (CPMG) pulse sequence, applying a relaxation delay of at least 5×T1.\nEach relaxivity measurement was performed using three different Gd concentrations (3 concentrations between 0.05 and 2 mM). […] Human plasma preparation: For each experiment fresh blood was taken from a volunteer using 10 mL citrate-tubes (Sarstedt S-Monovette 02.1067.001, 10 mL, Citrate). The 10 mL citrate-tubes were carefully inverted 10 times to mix blood and anticoagulant and centrifuged for 15 min at 1811 g at RT (Eppendorf, Centrifuge 5810R).\n(§2) The relaxivities n (where i=1, 2) were calculated based on the measured relaxation rates Ri in water and plasma: […]"}, "[5]": {"test": "Relaxivity measurements at 1.41 T in human plasma", "format": "physicochemical", "conditions": "37° C., normalized to Gd", "description": "The T1 relaxation times were determined using the standard inversion recovery (IR) method with a fixed relaxation delay of at least 5×T1. The variable inversion time (TI) was calculated automatically by the standard software of the MiniSpec mq60 (8 steps). The T2 measurements were performed by using a Carr-Purcell-Meiboom-Gill (CPMG) pulse sequence, applying a relaxation delay of at least 5×T1.\nEach relaxivity measurement was performed using three different Gd concentrations (3 concentrations between 0.05 and 2 mM).\nas §2"}}, "data": [{"compound": "CCCCOc1ccc(CCCC[C@@H](C(=O)O)N2CCN([C@@H](CO)C(=O)[O-])CCN([C@@H](CO)C(=O)[O-])CCN([C@@H](CO)C(=O)[O-])CC2)cc1.[Gd+3]", "note": "[Example 9, gadolinium (2S,2′S,2″S)-2,2′,2″-{10-[(1S)-5-(4-butoxyphenyl)-1-carboxypentyl]-1,4,7,10-tetraazacyclododecane-1,4,7-triyl}tris(3-hydroxypropanoate)]", "values": [{"measurement": "Solubility", "setting": "[1]", "result": 2, "unit": "mM"}, {"measurement": "Uptake into OATP1B1-HEK 293 cells", "setting": "OATP1B1", "result": "498 % of RC1"}, {"measurement": "Inhibition Rifampicine", "setting": "OATP1B1", "result": 73, "unit": "% inhibition"}, {"measurement": "Uptake into OATP1B3-HEK 293 cells", "setting": "OATP1B3", "result": "124 % of RC1"}, {"measurement": "Inhibition Rifampicine", "setting": "OATP1B3", "result": 95, "unit": "% inhibition"}, {"measurement": "Log P (partition coefficient butanol/buffer)", "setting": "[2]", "result": 0.26}, {"measurement": "Uptake rat hepatocytes", "setting": "[3]", "result": "54 % of RC1"}, {"measurement": "Inhibition Rifampicine", "setting": "[3]", "result": 46, "unit": "% inhibition"}]}, {"compound": "CCOCCOCCOCCOc1ccc(C[C@@H](C(=O)O)N2CCN(CC(=O)[O-])CCN(CC(=O)[O-])CCN(CC(=O)[O-])CC2)cc1.[Gd+3]", "note": "[Example 11, gadolinium 2,2′,2″-{10-[(1S)-1-carboxy-2-(4-{2-[2-(2-ethoxyethoxy)ethoxy]ethoxy}phenyl)ethyl]-1,4,7,10-tetraazacyclododecane-1,4,7-triyl}triacetate]", "values": [{"measurement": "r1 water", "setting": "[4]", "result": 4.3, "unit": "L/mmol/s"}, {"measurement": "r1 human plasma", "setting": "[5]", "result": 6.3, "unit": "L/mmol/s"}, {"measurement": "Uptake into OATP1B1-HEK 293 cells", "setting": "OATP1B1", "result": "154 % of RC1"}, {"measurement": "Inhibition Rifampicine", "setting": "OATP1B1", "result": 40, "unit": "% inhibition"}, {"measurement": "Uptake into OATP1B3-HEK 293 cells", "setting": "OATP1B3", "result": "16 % of RC1"}, {"measurement": "Inhibition Rifampicine", "setting": "OATP1B3", "result": 73, "unit": "% inhibition"}, {"measurement": "Log P (partition coefficient butanol/buffer)", "setting": "[2]", "result": "−1.68"}, {"measurement": "Uptake rat hepatocytes", "setting": "[3]", "result": "39 % of RC1"}, {"measurement": "Inhibition Rifampicine", "setting": "[3]", "result": 93, "unit": "% inhibition"}]}, {"compound": "CCOc1ccc(CCCC[C@@H](C(=O)O)N2CCN(CC(=O)[O-])CCN(CC(=O)[O-])CCN(CC(=O)[O-])CC2)cc1.[Gd+3]", "note": "[Example 27, gadolinium 2,2′,2″-{10-[(1S)-1-carboxy-5-(4-ethoxyphenyl)pentyl]-1,4,7,10-tetraazacyclo-dodecane-1,4,7-triyl}triacetate]", "values": [{"measurement": "Solubility", "setting": "[1]", "result": ">9", "unit": "mM"}, {"measurement": "Uptake into OATP1B1-HEK 293 cells", "setting": "OATP1B1", "result": "284 % of RC1"}, {"measurement": "Inhibition Rifampicine", "setting": "OATP1B1", "result": 93, "unit": "% inhibition"}, {"measurement": "Uptake into OATP1B3-HEK 293 cells", "setting": "OATP1B3", "result": "24 % of RC1"}, {"measurement": "Inhibition Rifampicine", "setting": "OATP1B3", "result": 96, "unit": "% inhibition"}, {"measurement": "Log P (partition coefficient butanol/buffer)", "setting": "[2]", "result": "−0.41"}, {"measurement": "Uptake rat hepatocytes", "setting": "[3]", "result": "69 % of RC1"}, {"measurement": "Inhibition Rifampicine", "setting": "[3]", "result": 98, "unit": "% inhibition"}]}, {"compound": "CCOCCOCCOCCOc1ccc(C[C@@H](C(=O)O)N2CCN(CC(=O)[O-])CCN(CC(=O)[O-])CCN(CC(=O)[O-])CC2)c(OCCOCCOCCOCC)c1.[Gd+3]", "note": "[Example 40, gadolinium 2,2′,2″-{10-[(1S)-2-(2,4-bis {2-[2-(2-ethoxyethoxy)ethoxy]ethoxy}phenyl)-1-carboxyethyl]-1,4,7,10-tetraazacyclododecane-1,4,7-triyl}triacetate]", "values": [{"measurement": "r1 water", "setting": "[4]", "result": 5.4, "unit": "L/mmol/s"}, {"measurement": "r1 human plasma", "setting": "[5]", "result": 7.3, "unit": "L/mmol/s"}, {"measurement": "Log P (partition coefficient butanol/buffer)", "setting": "[2]", "result": "−1.43"}, {"measurement": "Uptake rat hepatocytes", "setting": "[3]", "result": "20 % of RC1"}, {"measurement": "Inhibition Rifampicine", "setting": "[3]", "result": 88, "unit": "% inhibition"}]}, {"compound": "CCOCCOCCOc1ccc(CCC[C@@H](C(=O)O)N2CCN([C@H](CO)C(=O)[O-])CCN([C@H](CO)C(=O)[O-])CCN([C@@H](CO)C(=O)[O-])CC2)cc1.[Gd+3]", "note": "[Example 49, gadolinium (2R,2′R)-2,2′-{7-[(1S)-1-carboxy-4-{4-[2-(2-ethoxyethoxy)ethoxy]phenyl}butyl]-10-[(1S)-1-carboxylato-2-hydroxyethyl]-1,4,7,10-tetraazacyclododecane-1,4-diyl}bis(3-hydroxypropanoate)]", "values": [{"measurement": "Solubility", "setting": "[1]", "result": ">18", "unit": "mM"}, {"measurement": "Inhibition Rifampicine", "setting": "OATP1B1", "result": 71, "unit": "% inhibition"}, {"measurement": "Inhibition Rifampicine", "setting": "OATP1B3", "result": 94, "unit": "% inhibition"}]}, {"compound": "CCOCCOCCOc1ccc(CCC[C@@H](C(=O)O)N2CCN([C@H](CO)C(=O)[O-])CCN([C@@H](CO)C(=O)[O-])CCN([C@@H](CO)C(=O)[O-])CC2)cc1.[Gd+3]", "note": "[Example 50, gadolinium (2S,2'S)-2,2′-{7-[(1S)-1-carboxy-4-{4-[2-(2-ethoxyethoxy)ethoxy]phenyl}butyl]-10-[(1R)-1-carboxylato-2-hydroxyethyl]-1,4,7,10-tetraazacyclododecane-1,4-diyl}bis(3-hydroxypropanoate)]", "values": [{"measurement": "Solubility", "setting": "[1]", "result": ">19", "unit": "mM"}, {"measurement": "Inhibition Rifampicine", "setting": "OATP1B1", "result": 84, "unit": "% inhibition"}, {"measurement": "Inhibition Rifampicine", "setting": "OATP1B3", "result": 93, "unit": "% inhibition"}]}]}
